What was measured:
polyamine transporter [1] = assay: Spermidine uptake ([3H]spermidine) in ZR-75-1 cells; format: cell-based, human; conditions: FIG. 3
Protocol: (§1) J. Biol. […] Endocrinology 126: 3223-3231). […] Cell cultures were then washed twice with 1 ml PBS containing 5.7 mM sym-norspermidine. Cells were then lysed with 200-μl aliquot of 1 N NaOH and incubated for 30 minutes at 60° C. After neutralization with 200 μl of 1 N HCl, radioactivity was determined from a 250-μl of the cell lysate by scintillation counting. Uptake activity was expressed per amount of total cellular protein as determined by the method of Bradford (Bradford, M. M. 1976. Anal. Biochem. 72: 248-254). Non-specific binding of radioactive substrate was similarly determined in parallel for both cell lines after a 15 second-incubation with 400 μl of ice-cold uptake solution. […] Km, Ki and Vmax values were then estimated by Line-weaver-Burke analysis. For competitive inhibitors, Ki values were also estimated by measuring uptake activity in the presence of logarithmically increasing concentrations of antagonist, and using the Cheng-Prusoff equation (Cheng. Y. -C. and Prusoff, W. H. 1973. Biochem. Pharmacol. 22: 3099-3108) by iterative curve fitting for a sigmoidal curve. For mixed competitive/noncompetitive inhibition, two methods were used to calculate kinetic constants. […] C. 1976. Enzymes, 3rd Ed., Academic Press, San Diego, Calif.). […] C. 1976. Enzymes, 3rd Ed., Academic Press, San Diego, Calif.).

[2] = secondary amino group of the spermine head; cited from earlier work
polyamine transporter [3] = conditions: ZR-75-1 cells; compound as its own substrate; read-out: Km, spermine transport; cited from earlier work
polyamine transporter [4] = assay: Putrescine uptake ([3H]putrescine) in ZR-75-1 cells; format: cell-based, human; conditions: FIG. 3
Protocol: as §1

ZR-75-1 cells = assay: Effect of inhibitors on cell proliferation (11 days, DNA content); format: cell-based, human; conditions: 11 days
Protocol: Effect of Inhibitors on Cell Proliferation--For growth studies, ZR-75-1 cells were cultured in MEZR medium or in phenol red-free RPMI 1640 supplemented with 2 mM L-glutamine, 1 mM sodium pyruvate, 15 mM Hepes, antibiotics, 1 nM 17β-estradiol, 0.5 μg of bovine insulin per ml and 5% (v/v) charcoal-treated fetal bovine serum (SD medium), as indicated in the text. […] M. L. 1989. in The Physiology of Polyamines (Bachrach, U., and Helmer, Y. M. eds) Vol. I, pp. 203-229, CRC Press, Boca Raton). […] Endocrinology 126: 3223-3231). Medium was changed every other day in these experiments because of the slow reaction of the compound with an unknown component present in the IMEM and RPMI 1640 medium formulation.

SMILES: NCCCNCCCCNCCCN [Spermine, N,N'-bis-[3-aminopropyl]-1,4-butane-diamine, reference compound]
- Ability to compete against [3H]spermidine uptake, fold higher than that of DESC (polyamine transporter [1]): about 7 fold
- pKa [2]: 8.9-9.8
- Km (polyamine transporter [3]): 0.2 ± 0.06 µM
- Ability to compete against [3H]putrescine uptake, fold higher than that of DESC (polyamine transporter [4]): about 7 fold
- Effect on cell growth (ZR-75-1 cells; 50 μM): acutely cytotoxic
- Influence of 1 mM aminoguanidine on the growth effect of the compound (ZR-75-1 cells; spermine 50 μM, MESC 200 μM, DEASC 50 μM): only partly prevented by aminoguanidine
